Reference: ChEMBL document CHEMBL4715814, “Design, synthesis and biological activity evaluation of novel 4-subtituted 2-naphthamide derivatives as AcrB inhibitors” (2018)
Activity calls are given as the source filed them. The rule behind the calls is not given here.

Assays:
[1] = tested on: Escherichia coli; experiment: Potentiation of TPP-induced antibacterial activity against AcrB deficient Escherichia coli BW25113 assessed as TPP MIC at 512 ug/ml incubated for 18 hrs under aerobic condition by checkerboard titration assay (reference value: 256 ug/ml); assay type: functional; details: dose 512 µg/ml
[2] = tested on: Escherichia coli; experiment: Potentiation of erythromycin-induced antibacterial activity against wild type Escherichia coli BW25113 assessed as erythromycin MIC at 256 ug/ml incubated for 18 hrs under aerobic condition by checkerboard titration assay (reference value: 128 ug/ml); assay type: functional; details: dose 256 µg/ml
[3] = tested on: Escherichia coli; experiment: Potentiation of chloramphenicol-induced antibacterial activity against AcrB deficient Escherichia coli BW25113 assessed as chloramphenicol MIC at 512 ug/ml incubated for 18 hrs under aerobic condition by checkerboard titration assay (reference value: 2 ug/ml); assay type: functional; details: dose 512 µg/ml
[4] = tested on: Escherichia coli; experiment: Potentiation of TPP-induced antibacterial activity against wild type Escherichia coli BW25113 assessed as TPP MIC at 256 ug/ml incubated for 18 hrs under aerobic condition by checkerboard titration assay (reference value: 1024 ug/ml); assay type: functional; details: dose 256 µg/ml
[5] = tested on: Escherichia coli; experiment: Potentiation of erythromycin-induced antibacterial activity against AcrB deficient Escherichia coli BW25113 assessed as erythromycin MIC at 512 ug/ml incubated for 18 hrs under aerobic condition by checkerboard titration assay (reference value: 32 ug/ml); assay type: functional; details: dose 512 µg/ml
[6] = tested on: Escherichia coli; experiment: Potentiation of chloramphenicol-induced antibacterial activity against wild type Escherichia coli BW25113 assessed as chloramphenicol MIC at 512 ug/ml incubated for 18 hrs under aerobic condition by checkerboard titration assay (reference value: 16 ug/ml); assay type: functional; details: dose 512 µg/ml
[7] = tested on: Escherichia coli; experiment: Potentiation of chloramphenicol-induced antibacterial activity against wild type Escherichia coli BW25113 assessed as chloramphenicol MIC at 256 ug/ml incubated for 18 hrs under aerobic condition by checkerboard titration assay (reference value: 16 ug/ml); assay type: functional; details: dose 256 µg/ml
[8] = tested on: Escherichia coli; experiment: Potentiation of erythromycin-induced antibacterial activity against wild type Escherichia coli BW25113 assessed as erythromycin MIC at 512 ug/ml incubated for 18 hrs under aerobic condition by checkerboard titration assay (reference value: 128 ug/ml); assay type: functional; details: dose 512 µg/ml
[9] = tested on: Escherichia coli; experiment: Potentiation of rifampicin-induced antibacterial activity against wild type Escherichia coli BW25113 assessed as rifampicin MIC at 512 ug/ml incubated for 18 hrs under aerobic condition by checkerboard titration assay (reference value: 16 ug/ml); assay type: functional; details: dose 512 µg/ml
[10] = tested on: Escherichia coli; experiment: Potentiation of rifampicin-induced antibacterial activity against wild type Escherichia coli BW25113 assessed as rifampicin MIC at 256 ug/ml incubated for 18 hrs under aerobic condition by checkerboard titration assay (reference value: 16 ug/ml); assay type: functional; details: dose 256 µg/ml
[11] = tested on: Escherichia coli; experiment: Potentiation of TPP-induced antibacterial activity against wild type Escherichia coli BW25113 assessed as TPP MIC at 512 ug/ml incubated for 18 hrs under aerobic condition by checkerboard titration assay (reference value: 1024 ug/ml); assay type: functional; details: dose 512 µg/ml
[12] = tested on: Escherichia coli; experiment: Potentiation of chloramphenicol-induced antibacterial activity against AcrB deficient Escherichia coli BW25113 assessed as chloramphenicol MIC at 256 ug/ml incubated for 18 hrs under aerobic condition by checkerboard titration assay (reference value: 2 ug/ml); assay type: functional; details: dose 256 µg/ml
[13] = tested on: Cell membrane; experiment: Induction of outer membrane permeabilization in wild type Escherichia coli BW25113 assessed as increase in nitrocefin hydrolysis at 512 ug/ml measured for 30 mins in presence of CCCP by spectrophotometry analysis; assay type: subcellular; details: dose 512.0 µg/ml
[14] = tested on: Cell membrane; experiment: Disruption of inner membrane potential in wild type Escherichia coli BW25113 at 512 ug/ml preincubated for 10 mins followed by glucose stimulation and CCCP addition by DiOC2 probe based fluorimetric analysis; assay type: subcellular; details: dose 512.0 µg/ml
[15] = tested on: Escherichia coli; experiment: Potentiation of erythromycin-induced antibacterial activity against wild type Escherichia coli BW25113 assessed as erythromycin MIC at 128 ug/ml incubated for 18 hrs under aerobic condition by checkerboard titration assay (reference value: 128 ug/ml); assay type: functional; details: dose 128 µg/ml
[16] = tested on: Escherichia coli; experiment: Potentiation of TPP-induced antibacterial activity against wild type Escherichia coli BW25113 assessed as fold reduction in TPP MIC at 256 ug/ml incubated for 18 hrs under aerobic condition by checkerboard titration assay relative to TPP MIC alone; assay type: functional; details: dose 256 µg/ml
[17] = tested on: Escherichia coli; experiment: Potentiation of erythromycin-induced antibacterial activity against AcrB deficient Escherichia coli BW25113 assessed as erythromycin MIC at 256 ug/ml incubated for 18 hrs under aerobic condition by checkerboard titration assay (reference value: 32 ug/ml); assay type: functional; details: dose 256 µg/ml
[18] = tested on: Escherichia coli; experiment: Potentiation of TPP-induced antibacterial activity against AcrB deficient Escherichia coli BW25113 assessed as TPP MIC at 256 ug/ml incubated for 18 hrs under aerobic condition by checkerboard titration assay (reference value: 256 ug/ml); assay type: functional; details: dose 256 µg/ml
[19] = tested on: Escherichia coli; experiment: Potentiation of TPP-induced antibacterial activity against wild type Escherichia coli BW25113 assessed as TPP MIC at 128 ug/ml incubated for 18 hrs under aerobic condition by checkerboard titration assay (reference value: 1024 ug/ml); assay type: functional; details: dose 128 µg/ml
[20] = tested on: Escherichia coli; experiment: Potentiation of chloramphenicol-induced antibacterial activity against wild type Escherichia coli BW25113 assessed as chloramphenicol MIC at 128 ug/ml incubated for 18 hrs under aerobic condition by checkerboard titration assay (reference value: 16 ug/ml); assay type: functional; details: dose 128 µg/ml
[21] = tested on: Escherichia coli; experiment: Potentiation of rifampicin-induced antibacterial activity against wild type Escherichia coli BW25113 assessed as rifampicin MIC at 128 ug/ml incubated for 18 hrs under aerobic condition by checkerboard titration assay (reference value: 16 ug/ml); assay type: functional; details: dose 128 µg/ml
[22] = tested on: Escherichia coli; experiment: (§1) Antibacterial activity against Wild type Escherichia coli BW25113 assessed as inhibition of AcrB efflux pump by mesuring the glucose-induced nile red efflux at 500 uM preincubated with CCCP for 15 mins followed by compound addition after 15 mins nile red added and incubated for 3 hrs in shaker by fluorimetric analysis; assay type: functional, organism-based; details: time 195.0 min
[23] = tested on: Escherichia coli; experiment: Potentiation of chloramphenicol-induced antibacterial activity against wild type Escherichia coli BW25113 assessed as fold reduction in chloramphenicol MIC at 256 ug/ml incubated for 18 hrs under aerobic condition by checkerboard titration assay relative to chloramphenicol MIC alone; assay type: functional; details: dose 256 µg/ml
[24] = tested on: Escherichia coli; experiment: as §1, with “100” for “500”; assay type: functional, organism-based; details: time 195.0 min

Row | SMILES | MIC [1] [µg/mL] | MIC [2] [µg/mL] | MIC [4] [µg/mL] | MIC [7] [µg/mL] | MIC [10] [µg/mL] | MIC [12] [µg/mL] | Activity [13] | Activity [14] | MIC [15] [µg/mL] | MIC [17] [µg/mL] | MIC [18] [µg/mL] | MIC [19] [µg/mL] | MIC [20] [µg/mL] | MIC [21] [µg/mL] | MIC [3] [µg/mL] | MIC [5] [µg/mL] | MIC [6] [µg/mL] | MIC [8] [µg/mL] | MIC [11] [µg/mL] | fold change (FC) [16] | further results
1 | CC(C)CCOc1cc(C(N)=O)cc2ccccc12 | 256 | 64 | 512 | 8 | 16 | – | – | – | – | – | – | – | – | – | 2 | 32 | 4 | 32 | 256 | – | MIC [9]: 16 µg/mL
2 | O=C(NCc1ccco1)c1cc(OCc2ccccc2)c2ccccc2c1 | – | 128 | 256 | 2 | 4 | 2 | inactive | Active | 128 | – | – | 1020 | 16 | 16 | – | – | – | – | – | – | fold change (FC) [23]: 8; Activity [24]: Active
3 | NC(=O)c1cc(OCCNCc2ccc(O)cc2)c2ccccc2c1 | – | 128 | 256 | 4 | 8 | 2 | inactive | inactive | 128 | 32 | 256 | 1020 | 8 | 8 | – | – | – | – | – | 4 | fold change (FC) [23]: 4; Activity [22]: inactive

Continued, in another order:

Row | MIC [1] [µg/mL] | MIC [2] [µg/mL] | MIC [4] [µg/mL] | MIC [7] [µg/mL] | MIC [10] [µg/mL] | MIC [12] [µg/mL] | Activity [13] | Activity [14] | MIC [15] [µg/mL] | MIC [17] [µg/mL] | MIC [18] [µg/mL] | MIC [19] [µg/mL] | MIC [20] [µg/mL] | MIC [21] [µg/mL] | SMILES | MIC [3] [µg/mL] | MIC [5] [µg/mL] | MIC [6] [µg/mL] | MIC [8] [µg/mL] | MIC [11] [µg/mL] | fold change (FC) [16] | further results
4 | 256 | 128 | 1020 | 16 | 16 | – | – | – | – | – | – | – | – | – | O=C(NCc1ccccc1)c1cc(OCc2ccccc2)c2ccccc2c1 | – | 32 | 16 | 64 | 1020 | – | –
5 | – | 64 | 256 | 4 | 4 | 2 | Active | Active | 128 | 32 | 256 | 1020 | 16 | 16 | O=C(NCc1ccccc1Cl)c1cc(OCc2ccccc2)c2ccccc2c1 | – | – | – | – | – | 4 | Activity [22]: Active
6 | 256 | 128 | 256 | 4 | 4 | – | Active | Active | 128 | – | – | 1020 | 8 | 16 | CCCCCCNC(=O)c1cc(OCc2ccccc2)c2ccccc2c1 | 2 | – | – | – | – | 4 | –
